In patent publication EP2397149A1 (Hil-Invent Ges.M.B.H., priority 2010, dated 2011):
Like-named read-outs stand apart in the source and are kept apart here. Starred links: 1 amine or outer side, 2 acyl side, 3 side chain; linkers in the order of their positions; H or OH if unused. Positions of bridges follow the written chain, without caps; N, C: chain ends. Non-standard residues stand in square brackets, D forms with d. Residues, ends and D or L forms follow the SMILES beside them. Chains are numbered I, II in the order given. Actinocin(9to1) = Cc1c2oc3c(C)ccc(C(=O)[*:1])c3nc-2c(C(=O)[*:2])c(N)c1=O; NMeV = CN[C@H](C(=O)O)C(C)C; Sar = CNCC(=O)O

How the values were obtained:
B-CLL cells = assay: IC50 determination (XTT dye, 48 h); assay type: cell-based, human
Description: 1.5 x 10^6 B-CLL cells and 0.4 x 10^6 CEM-C7H2 cells per well were incubated with different concentrations of the respective substance (0,2, 0,5, 1, 2, 5, 10, 20 µM) and incubated for 48 h. After this XTT-dye solution was added as described above and absorption was measured at 450 nm with 655 nm as reference wavelength. Concentrations that led to a 50 % metabolism reduction were monitored as IC50 value.
Finally, the substances were tested for their toxicity in cell lines from different parts of the human body such as liver (HepG2), kidney (HEK-293), lung (SHP-77), skin keratinocytes (WS-1) and in human umbilical vein endothelial cells from 3 different donors. […] For these substances the mean IC50 (48h) in 4 B-CLL cells samples from 4 different donors was determined and the substances were numbered beginning with the lowest IC50 in B-CLL cells.

[1] = tested on: B-CLL cells bearing the chromosomal aberration del(17p)13; assay: Viability / apoptosis of del(17p)13 B-CLL cells (flow cytometry, AnnexinV/7-AAD); assay type: cell-based, human; details: for viability reduction: 160 nM
Description: (§1) Viability was measured using flow-cytometry (AnnexinV/7-AAD,-/-). […] The length of the box corresponds to the interquartile range (IQR) and is the difference between the 75th and 25th percentiles. The horizontal line in the box is the median. […] Viability of B-CLL cells was assessed using a flow-cytometer (Annex-inV/7-AAD -/-). The length of the box corresponds to the interquartile range (IQR) and is the difference between the 75th and 25th percentiles. The horizontal line in the box is the median. […] Day zero is the day of engraftment with 3x10^6 lymphocytes derived from TCL1 transgenic mice with overt leukemia. […] Blood samples were collected from the tail vein of the respective animal and whole blood was analysed for CD5/CD19 positive cells using a flow-cytometer. […] Dashed line is 0.04 mg/kg and black line is 0.05 mg/kg daily for two weeks.
The supplied substances were solved in 100 µl medium at 37°C 90 min on a rotation shaker and transferred to a 96-well plated. Then 100µl medium containing 1.5 x 10^6 B-CLL cells was added. Final concentration of the substances was 20 µM. After a incubation time of 48 h 50 µl XTT-dye was added and absorption measured as above. […] Only substances that reduced the cell metabolism/dye development > 50 % were counted. The reason for this higher cut off value is the low proliferative activity of B-CLL cells who are mainly in Go arrest. Positive substances were double checked with Annex-inV/7-AAD apoptosis/necrosis staining in CD19+/CD5+ positive cells on a flow cytometer.

[2] = tested on: colon cancer cell line HCT116; assay: Sensitivity of isogenic HCT116 with or without p53 deletion; assay type: cell-based
[3] = tested on: engrafted B-CLL mice (CD5/CD19 cells)
Description: (§2) The original Eµ-TCL1a transgenic mice which were generously provided by C. Croce (Ohio) have been back-crossed for > 9 generations to C57BL/6 mice. Mice were killed at stated ages, or when signs of illness developed, and samples for histology, flow cytometry, and miRNA isolation were collected. The tumor load in all lymphoid organs was assessed by flow cytometry following staining for the surface markers CD19, CD5, and IgM. Approval from the Austrian Animal Ethics committee was obtained prior to performing the experiments. Engrafted mice were produced by injecting 3 x 10^6 lymphocytes of a leukemic Eµ-TCL1a transgenic mouse into 30 Black 6 mice from Charles River Laboratories, Sulzfeld, Germany.
First a treatment study included 10 mice.
To assess tumour load development after treatment blood samples were collected from the tail vein (Fig. 4).

[4] = tested on: engrafted CLL mice (CD5/CD19 cells); assay: Treatment study 02: reduced actinomycin D concentrations in murine B-CLL model; assay type: in vivo
Description: as §2
In example 1 a treatment schedule of 0.06 mg/kg daily for two weeks was used. […] To assess the tumour load blood samples were consecutively taken from the tail vein.

[5] = tested on: engrafted wildtype (C57BL/6) mice (CD5+/CD19+ cells); assay: Treatment study 03: head to head comparison of actinomycin D and fludarabine; assay type: in vivo; details: for 50 % survival time after start of treatment / tumour load reduction: actinomycin D 0.06 mg/kg daily for 14 days, fludarabine 34 mg/kg for 5 days; for tumour load reduction: day 22 after treatment start, vs untreated mice
Description: as §1, §2
At day 22 after treatment start tumour load was assessed compared to that of the tumour load of untreated mice.

[6] = tested on: B-CLL cells of patients with no p53 aberrations; assay: Influence of the p53 inhibitor pifithrin-alpha on drug susceptibility (flow cytometry, AnnexinV/7-AAD); assay type: cell-based, human
Description: as §1
B-CLL cells of patients with no p53 aberrations were treated with 160 nM actinomycin w or w/o 30 µM pifithrin-alpha.

SMILES: Cc1c2oc3c(C)ccc(C(=O)N[C@@H]4C(=O)N[C@H](C(C)C)C(=O)N5CCC[C@H]5C(=O)N(C)CC(=O)N(C)[C@@H](C(C)C)C(=O)O[C@@H]4C)c3nc-2c(C(=O)N[C@@H]2C(=O)N[C@H](C(C)C)C(=O)N3CCC[C@H]3C(=O)N(C)CC(=O)N(C)[C@@H](C(C)C)C(=O)O[C@@H]2C)c(N)c1=O [actinomycin D] (I: T[dV]P[Sar][NMeV] / II: T[dV]P[Sar][NMeV]; ester I:1-I:C, II:1-II:C; linker I:N-II:N via Actinocin(9to1))
- IC50 (B-CLL cells; 4 B-CLL cells samples from 4 different donors, 48 h, in vitro, read-out: mean IC50 (48h)): 0.08 µM
- viability (Fig. 1) ([1]; 20 nM, 48 h, 4 p53 deleted, fludarabine resistant B-CLL patients, p < 0.001): significant viability reduction
- apoptosis induced in % of B-CLL cells ([1]; 20 nM, within 48 h, del(17p)13 B-CLL cells (Fig. 1)): > 80%
- viability reduction ([1]; del(17p)13 B-CLL samples derived from peripheral blood): > 45%
- viability reduction ([1]; one del(17p)13 sample derived from the bone marrow): 38%
- apoptosis induction ([1]; 20 µM, three B-CLL samples of patients with del(17p)13): able to induce apoptosis in all three B-CLL cells samples
- effect of p53 deletion on actinomycin D susceptibility [2]: no effect
- survival difference to the mock treated animals (Fig. 3) ([3]; 0,06 mg/kg daily for two weeks vs PBS): highly significant
- time after the initial therapy until retreatment ([3]; CD5/CD19 counts back at the initial value at day 135): 85 days
- CD5/CD19 count after treatment ([3]; treatment at day 50, three surviving animals, tail vein blood): A reduction of the CD5/CD19 count can be observed in all three animals
- tumour cells after treatment ([4]; 0.05 mg/kg or 0.04 mg/kg daily for two weeks, two mice each, start 47 days after engraftment): severe reduction of tumour cells
- time until tumour load increased to the initial values after the first treatment ([4]; 0.05 or 0.04 mg/kg daily for two weeks, after first treatment): 46 days
- time until CD5/CD19 counts increased again after the second treatment ([4]; 0.05 or 0.04 mg/kg daily for two weeks, after retreatment): 44 days
- tumour load (CD5+/CD19+ cell count), Fig. 6 ([5]; 22 days after treatment start): highly significant tumour load reduction
- 50 % survival time after start of treatment [5]: 103 days
- tumour load reduction [5]: more than 80%

SMILES: CN1CC[C@H](c2c(O)cc(O)c3c(=O)cc(-c4ccccc4Cl)oc23)[C@H](O)C1 [flavopiridol]
- synergism with pifithrin-alpha ([6]; with or without 30 µM pifithrin-alpha, 48 h, 160 nM actinomycin (text; Fig. 2: 20 nM), 50 nM flavopiridol, 10 µM fludarabine): synergistic with pifithrin-alpha

SMILES: Nc1nc(F)nc2c1ncn2[C@@H]1O[C@H](CO)[C@@H](O)[C@@H]1O [fludarabine]
- IC50 (B-CLL cells; Homo sapiens, B-CLL, read-out: double IC50 determined for fludarabine, printed as the double IC50, unclear whether 3µM is the IC50 or its double): 3 µM
- 50 % survival time after start of treatment [5]: 47 days
- tumour load reduction [5]: 20%

SMILES: Cc1ccc(C(=O)Cn2c3c(sc2=N)CCCC3)cc1 [pifithrin-alpha]
- effect of pifithrin-alpha alone on viability of CLL cells ([6]; 30 µM, alone): no effect on viability
